Reference: patent publication US6642392B1 (priority 1997, dated 2003)
Like-named read-outs stand apart in the source and are kept apart here.

Experiments:
Type in all cases: in vivo
Pyricularia oryzae = settings: rice blast
Puccinia recondita = assay: Test B: wheat leaf rust, preventive spray on wheat seedlings; settings: wheat leaf rust
Protocol: (§1) The resulting test suspensions were then used in the following tests. […]
(§2) The test suspension was sprayed to the point of run-off on wheat seedlings. The following day the seedlings were inoculated with a spore suspension of Puccinia recondita (the causal agent of wheat leaf rust) and incubated in a saturated atmosphere at 20° C. for 24 h, and then moved to a growth chamber at 20° C. for 6 days, after which disease ratings were made.
(§3) Results for Tests A-E are given in Table A. In the table, a rating of 100 indicates 100% disease control and a rating of 0 indicates no disease control (relative to the controls). A dash (-) indicates no test results. ND indicates disease control not determined due to phytotoxicity.

[1] = system: Eiysiphe graminis f. sp. tritici; assay: Test A: wheat powdery mildew, preventive spray on wheat seedlings; settings: wheat powdery mildew
Protocol: as §1
The test suspension was sprayed to the point of run-off on wheat seedlings. The following day the seedlings were inoculated with a spore dust of Eiysiphe graminis f. sp. tritici, (the causal agent of wheat powdery mildew) and incubated in a growth chamber at 20° C. for 7 days, after which disease ratings were made.
as §3

Botrytis cinerea = assay: Test E: gray mold, preventive spray on cucumber seedlings; settings: gray mold on cucumber
Protocol: The resulting test suspensions were then used in the following tests. Spraying these 200 ppm test suspensions to the point of run-off on the test plants is the equivalent of a rate of 500 g/ha.
as §2, with “cucumber” for “wheat”, “Botrytis cinerea” for “Puccinia recondita”, “gray mold on many crops)” for “wheat leaf rust)”, “48” for “24”, “and” for “and then”, “5” for “6”
as §3

Phytophthora infestans = settings: tomato late blight
[2] = 100 = 100% disease control, 0 = no control, unmarked entries (standard test concentration)
[3] = 100 = 100% disease control, 0 = no control relative to controls, unmarked entries (standard test concentration)

## CCC1(C(=O)NC(C)COc2cccc(Cl)c2)C(C)C1(Cl)Cl (mixture of isomers) [82a]
Pyricularia oryzae; tested at 40 ppm
  Test C disease control rating: 53%
Puccinia recondita; tested at 40 ppm
  Test B disease control rating: 0%
[1]; tested at 40 ppm
  Test A disease control rating: 0%
Botrytis cinerea; tested at 40 ppm
  Test E disease control rating: 0%
Phytophthora infestans; tested at 40 ppm
  Test D disease control rating: 43%

## CCC1(C(=O)NC(C)COc2cccc(Cl)c2)C(C)C1(Cl)Cl (mixture of isomers) [82b]
Pyricularia oryzae; [2]
  Test C disease control rating: 97%
Puccinia recondita; [2]
  Test B disease control rating: 0%
[1]; [3]
  Test A disease control rating: 31%
Botrytis cinerea; [2]
  Test E disease control rating: 0%
Phytophthora infestans; [2]
  Test D disease control rating: 15%

## CCC1(C(=O)NC(C)COc2ccc(Cl)cc2)C(C)C1(Cl)Cl (mixture of isomers) [83a]
Pyricularia oryzae; tested at 40 ppm
  Test C disease control rating: 32%
Puccinia recondita; tested at 40 ppm
  Test B disease control rating: 0%
[1]; tested at 40 ppm
  Test A disease control rating: 0%
Botrytis cinerea; tested at 40 ppm
  Test E disease control rating: 0%
Phytophthora infestans; tested at 40 ppm
  Test D disease control rating: 0%

## CCC1(C(=O)NC(C)COc2ccc(Cl)cc2)C(C)C1(Cl)Cl (mixture of isomers) [83b]
Pyricularia oryzae; tested at 40 ppm
  Test C disease control rating: 53%
Puccinia recondita; tested at 40 ppm
  Test B disease control rating: 0%
[1]; tested at 40 ppm
  Test A disease control rating: 52%
Botrytis cinerea; tested at 40 ppm
  Test E disease control rating: 0%
Phytophthora infestans; tested at 40 ppm
  Test D disease control rating: 0%

## CCC1(C(=O)NC(C)COc2ccccc2Br)C(C)C1(Cl)Cl (mixture of isomers) [84a]
Pyricularia oryzae; tested at 40 ppm
  Test C disease control rating: 0%
Puccinia recondita; tested at 40 ppm
  Test B disease control rating: 0%
[1]; tested at 40 ppm
  Test A disease control rating: 29%
Botrytis cinerea; tested at 40 ppm
  Test E disease control rating: 0%
Phytophthora infestans; tested at 40 ppm
  Test D disease control rating: 20%

## CCC1(C(=O)NC(C)COc2ccccc2Br)C(C)C1(Cl)Cl (mixture of isomers) [84b]
Pyricularia oryzae; tested at 40 ppm
  Test C disease control rating: 73%
Puccinia recondita; tested at 40 ppm
  Test B disease control rating: 28%
[1]; tested at 40 ppm
  Test A disease control rating: 57%
Botrytis cinerea; tested at 40 ppm
  Test E disease control rating: 0%
Phytophthora infestans; tested at 40 ppm
  Test D disease control rating: 75%

## CCC1(C(=O)NC(C)COc2cccc(Br)c2)C(C)C1(Cl)Cl (mixture of isomers) [85b]
Pyricularia oryzae; tested at 40 ppm
  Test C disease control rating: 53%
Puccinia recondita; tested at 40 ppm
  Test B disease control rating: 0%
[1]; tested at 40 ppm
  Test A disease control rating: 0%
Botrytis cinerea; tested at 40 ppm
  Test E disease control rating: 0%
Phytophthora infestans; tested at 40 ppm
  Test D disease control rating: 0%

## CCC1(C(=O)NC(C)COc2ccc(Br)cc2)C(C)C1(Cl)Cl (mixture of isomers) [86a]
Pyricularia oryzae; tested at 40 ppm
  Test C disease control rating: 0%
Puccinia recondita; tested at 40 ppm
  Test B disease control rating: 67%
[1]; tested at 40 ppm
  Test A disease control rating: 0%
Botrytis cinerea; tested at 40 ppm
  Test E disease control rating: 0%
Phytophthora infestans; tested at 40 ppm
  Test D disease control rating: 0%

## CCC1(C(=O)NC(C)COc2ccc(Br)cc2)C(C)C1(Cl)Cl (mixture of isomers) [86b]
Pyricularia oryzae; tested at 40 ppm
  Test C disease control rating: 0%
Puccinia recondita; tested at 40 ppm
  Test B disease control rating: 0%
[1]; tested at 40 ppm
  Test A disease control rating: 52%
Botrytis cinerea; tested at 40 ppm
  Test E disease control rating: 0%
Phytophthora infestans; tested at 40 ppm
  Test D disease control rating: 28%

## CCC1(C(=O)NC(C)COc2ccccc2I)C(C)C1(Cl)Cl (mixture of isomers) [87a]
Pyricularia oryzae; tested at 40 ppm
  Test C disease control rating: 74%
Puccinia recondita; tested at 40 ppm
  Test B disease control rating: 0%
[1]; tested at 40 ppm
  Test A disease control rating: 0%
Botrytis cinerea; tested at 40 ppm
  Test E disease control rating: 0%
Phytophthora infestans; tested at 40 ppm
  Test D disease control rating: 0%

## CCC1(C(=O)NC(C)COc2ccccc2I)C(C)C1(Cl)Cl (mixture of isomers) [87b]
Pyricularia oryzae; tested at 40 ppm
  Test C disease control rating: 0%
Puccinia recondita; tested at 40 ppm
  Test B disease control rating: 0%
[1]; tested at 40 ppm
  Test A disease control rating: 52%
Botrytis cinerea; tested at 40 ppm
  Test E disease control rating: 0%
Phytophthora infestans; tested at 40 ppm
  Test D disease control rating: 0%

## CCC1(C(=O)NC(C)COc2ccccc2C#N)C(C)C1(Cl)Cl (mixture of isomers) [89a]
Pyricularia oryzae; [2]
  Test C disease control rating: 74%
Puccinia recondita; [2]
  Test B disease control rating: 0%
[1]; [3]
  Test A disease control rating: 0%
Botrytis cinerea; [2]
  Test E disease control rating: 0%
Phytophthora infestans; [2]
  Test D disease control rating: 20%

## CCC1(C(=O)NC(C)COc2ccccc2C(F)(F)F)C(C)C1(Cl)Cl (mixture of isomers) [94a]
Pyricularia oryzae; [2]
  Test C disease control rating: 0%
Puccinia recondita; [2]
  Test B disease control rating: 0%
[1]; [3]
  Test A disease control rating: 0%
Botrytis cinerea; [2]
  Test E disease control rating: 0%
Phytophthora infestans; [2]
  Test D disease control rating: 0%

## CCC1(C(=O)NC(C)COc2ccccc2C(F)(F)F)C(C)C1(Cl)Cl (mixture of isomers) [94b]
Pyricularia oryzae; tested at 40 ppm
  Test C disease control rating: 0%
Puccinia recondita; tested at 40 ppm
  Test B disease control rating: 0%
[1]; tested at 40 ppm
  Test A disease control rating: 71%
Botrytis cinerea; tested at 40 ppm
  Test E disease control rating: 0%
Phytophthora infestans; tested at 40 ppm
  Test D disease control rating: 0%

## CCc1ccccc1OCC(C)NC(=O)C1(CC)C(C)C1(Cl)Cl (mixture of isomers) [97a]
Pyricularia oryzae; tested at 40 ppm
  Test C disease control rating: 0%
Puccinia recondita; tested at 40 ppm
  Test B disease control rating: 0%
[1]; tested at 40 ppm
  Test A disease control rating: 0%
Botrytis cinerea; tested at 40 ppm
  Test E disease control rating: 0%
Phytophthora infestans; tested at 40 ppm
  Test D disease control rating: 20%

## CCCc1ccccc1OCC(C)NC(=O)C1(CC)C(C)C1(Cl)Cl (mixture of isomers) [98a]
Pyricularia oryzae; [2]
  Test C disease control rating: 53%
Puccinia recondita; [2]
  Test B disease control rating: 0%
[1]; [3]
  Test A disease control rating: 0%
Botrytis cinerea; [2]
  Test E disease control rating: 0%
Phytophthora infestans; [2]
  Test D disease control rating: 24%

## C=CCc1ccccc1OCC(C)NC(=O)C1(CC)C(C)C1(Cl)Cl (mixture of isomers) [101a]
Pyricularia oryzae; [2]
  Test C disease control rating: 0%
Puccinia recondita; [2]
  Test B disease control rating: 0%
[1]; [3]
  Test A disease control rating: 0%
Botrytis cinerea; [2]
  Test E disease control rating: 22%
Phytophthora infestans; [2]
  Test D disease control rating: 46%

## CCC1(C(=O)NC(C)COc2c(F)cccc2F)C(C)C1(Cl)Cl (mixture of isomers) [105a]
Pyricularia oryzae; [2]
  Test C disease control rating: 53%
Puccinia recondita; [2]
  Test B disease control rating: 0%
[1]; [3]
  Test A disease control rating: 0%
Botrytis cinerea; [2]
  Test E disease control rating: 55%
Phytophthora infestans; [2]
  Test D disease control rating: 0%

## CCC1(C(=O)NC(C)COn2c(C#N)cc(Cl)c2C)C(C)C1(Cl)Cl (mixture of isomers) [140a]
Pyricularia oryzae; [2]
  Test C disease control rating: 90%
Puccinia recondita; [2]
  Test B disease control rating: 0%
[1]; [3]
  Test A disease control rating: 29%
Botrytis cinerea; [2]
  Test E disease control rating: 0%
Phytophthora infestans; [2]
  Test D disease control rating: 0%

## CCC1(C(=O)NC(C)COn2c(C#N)cc(Cl)c2C)C(C)C1(Cl)Cl (mixture of isomers) [140b]
Pyricularia oryzae; [2]
  Test C disease control rating: 74%
Puccinia recondita; [2]
  Test B disease control rating: 28%
[1]; [3]
  Test A disease control rating: 63%
Botrytis cinerea; [2]
  Test E disease control rating: 0%
Phytophthora infestans; [2]
  Test D disease control rating: 38%

## CC(COc1cc(F)ccc1Cl)NC(=O)C(C#N)C(C)(C)C (mixture of isomers) [191c]
Pyricularia oryzae; [2]
  Test C disease control rating: 100%
Puccinia recondita; [2]
  Test B disease control rating: 0%
[1]; [3]
  Test A disease control rating: 86%
Botrytis cinerea; [2]
  Test E disease control rating: 0%
Phytophthora infestans; [2]
  Test D disease control rating: 23%

## CC(COc1ccccc1CC#N)NC(=O)C(C#N)C(C)(C)C (mixture of isomers) [compound 16]
Pyricularia oryzae; [2]
  Test C disease control rating: 97%
Puccinia recondita; [2]
  Test B disease control rating: 0%
[1]; [3]
  Test A disease control rating: 0%
Botrytis cinerea; [2]
  Test E disease control rating: 0%
Phytophthora infestans; [2]
  Test D disease control rating: 48%

## Cc1ccccc1OCC(C)NC(=O)C(C#N)C(C)(C)C (mixture of isomers) [compound 19]
Pyricularia oryzae; [2]
  Test C disease control rating: 97%
Puccinia recondita; [2]
  Test B disease control rating: 0%
[1]; [3]
  Test A disease control rating: 0%
Botrytis cinerea; [2]
  Test E disease control rating: 0%
Phytophthora infestans; [2]
  Test D disease control rating: 0%

## CC(COc1ccccc1C(C)C)NC(=O)C(C#N)C(C)(C)C (mixture of isomers) [compound 22]
Pyricularia oryzae; [2]
  Test C disease control rating: 100%
Puccinia recondita; [2]
  Test B disease control rating: 0%
[1]; [3]
  Test A disease control rating: 0%
Botrytis cinerea; [2]
  Test E disease control rating: 0%
Phytophthora infestans; [2]
  Test D disease control rating: 0%

## CC(COc1ccccc1C(C)(C)C)NC(=O)C(C#N)C(C)(C)C (mixture of isomers) [compound 23]
Pyricularia oryzae; [2]
  Test C disease control rating: 97%
Puccinia recondita; [2]
  Test B disease control rating: 0%
[1]; [3]
  Test A disease control rating: 0%
Botrytis cinerea; [2]
  Test E disease control rating: 0%
Phytophthora infestans; [2]
  Test D disease control rating: 48%

## CC(COc1ccc(C(C)(C)C)cc1)NC(=O)C(C#N)C(C)(C)C (mixture of isomers) [compound 24]
Pyricularia oryzae; [2]
  Test C disease control rating: 53%
Puccinia recondita; [2]
  Test B disease control rating: 0%
[1]; [3]
  Test A disease control rating: 62%
Botrytis cinerea; [2]
  Test E disease control rating: 94%
Phytophthora infestans; [2]
  Test D disease control rating: 66%

## CC(COc1c(Cl)cccc1Cl)NC(=O)C(C#N)C(C)(C)C (mixture of isomers) [compound 34]
Pyricularia oryzae; [2]
  Test C disease control rating: 91%
Puccinia recondita; [2]
  Test B disease control rating: 85%
[1]; [3]
  Test A disease control rating: 62%
Botrytis cinerea; [2]
  Test E disease control rating: 0%
Phytophthora infestans; [2]
  Test D disease control rating: 0%

## CC(COc1ccc(Br)cc1F)NC(=O)C(C#N)C(C)(C)C (mixture of isomers) [compound 38]
Pyricularia oryzae; [2]
  Test C disease control rating: 53%
Puccinia recondita; [2]
  Test B disease control rating: 28%
[1]; [3]
  Test A disease control rating: 0%
Botrytis cinerea; [2]
  Test E disease control rating: 22%
Phytophthora infestans; [2]
  Test D disease control rating: 0%

## CC(COc1cccc(F)c1C#N)NC(=O)C(C#N)C(C)(C)C (mixture of isomers) [compound 39]
Pyricularia oryzae; [2]
  Test C disease control rating: 86%
Puccinia recondita; [2]
  Test B disease control rating: 0%
[1]; [3]
  Test A disease control rating: 0%
Botrytis cinerea; [2]
  Test E disease control rating: 0%
Phytophthora infestans; [2]
  Test D disease control rating: 2%
